Data set [1] is described as follows: Hemolysis assay (endosomal escape ability of LNPs). In kind it is cell-based. The following applies: pH 7.4; LNPs formulated with the lipid. As for the experimental part: (§1) The formulation was kept at 4° C. until used in the luciferase expression assay to evaluate LNP's potency, and for toxicity using LDH assay in the HeLa and HEK293 cells. LNPs were used in the TNS assay to determine the experimental (apparent) pKa of the ionizable lipid. Hemolysis assay was used to determine the indirect endosomal escape (EE) capability of the LNPs. LNPs were evaluated in vivo for luciferase expression 6 h and 24 h post-dose in mice through i.m. injection at […]. Mice were sacrificed at the end point and then organs were harvested for ex-vivo imaging.
FIG. 6 illustrates endosomal escape ability of LNPs formulated using the ionizable lipids using a hemolysis assay.

The subject of another data set is Hek 293 FT cells. Description: LDH toxicity assay. Format: cell-based. The following applies: two separate batches. As for the experimental part: GILP-133 was tested in an assay to measure the level of lactate dehydrogenase (LDH), also known as lactic acid dehydrogenase. The LDH assay protocol is based on an enzymatic coupling reaction: LDH released from the cell oxidizes lactate to generate NADH, which then reacts with WST to generate a yellow color. The intensity of the generated color correlates directly with the number of lysed cells. This gives an indication of cytotoxicity, looking at the % of viable cells remaining. In this testing, Hek 293 FT cells were used 10 uL 1% Triton was added to positive control wells and incubated for 5 min. 50 uL cell culture medium was transferred to black 96-well plate. 50 uL LDH assay solution is added and incubated for 10 min at room temperature. Subsequently 50 ul stop solution was added and fluorescence intensity was read using a microplate reader.

Another data set relates to mice. Description: Animal luciferase expression study, intramuscular injection, IVIS imaging. In kind it is in vivo. The following applies: i.m., 5 μg of mRNA per mouse, organs at 24 h, compared to all GIL-133 formulations. Here is the method:
as §1
These samples were injected to mice through intramuscular injection at the leg site at a dose of 5 μg of mRNA per mouse. Compositions with control LNP of FIG. 7 were used as positive control. At 6 h and 24 h post injection, the mice were subjected to IVIS imaging system to take the whole-body image. […] The same trend was found in the whole-body imaging results.
At 24 h, the mice were sacrificed, and the main organs include heart, liver, spleen, lung, kidneys, muscle, dLNs and ndLNs were collected and imaged. […] All results are shown in 11A, 11B, 11C, 11D, and 11E.

Four molecules from patent US20250275918A1, “LIPID COMPOSITIONS AND METHODS FOR NUCLEIC ACID DELIVERY” (GREENLIGHT BIOSCIENCES, INC., priority 2022, published 2025) can be followed below.

Structures are written as SMILES.

Consider `CCCCCCCCC(CCCCCC)C(=O)OCCCCCCCN(C)CCCN(C)CCCCCCCOC(=O)C(CCCCCC)CCCCCCCC` (centres unmarked) [GILP-124, (propane-1,3-diylbis(methylazanediyl))bis(heptane-7,1-diyl)bis(2-hexyldecanoate)], for which the “hemolysis at neutral pH” value in data set [1] was “negligible hemolysis”.

For the molecule `CCCCCCCCC(CCCCCC)C(=O)OCCCCCCCN(CC)CCCN(CC)CCCCCCCOC(=O)C(CCCCCC)CCCCCCCC` (centres unmarked) [GILP-126, (propane-1,3-diylbis(ethylazanediyl))bis(heptane-7,1-diyl)bis(2-hexyldecanoate)], in data set [1], the “hemolysis at neutral pH” value is reported as “negligible hemolysis”.

Take `CCCCCCCCC(CCCCCC)C(=O)OCCCCCCCN(C)[C@@H]1CCCC[C@H]1N(C)CCCCCCCOC(=O)C(CCCCCC)CCCCCCCC` (stereo partly drawn) [GILP-133, (((1R,2S)-cyclohexane-1,2-diyl)bis(methylazanediyl))bis(heptane-7,1-diyl)bis(2-hexyldecanoate)]: the “% cell viability compared to control cationic lipid of FIG. 7” value in the data set with Hek 293 FT cells is reported as “equivalent % cell viability”.

In the case of `CCCCCCCCCCCOC(=O)CCCCCN(CCO)CCCCCCCC(=O)OC(CCCCCCCC)CCCCCCCC` [positive control, heptadecan-9-yl 8-[2-hydroxyethyl-(6-oxo-6-undecoxyhexyl)amino]octanoate], in the data set on mice, the “luciferase expression in ndLNs” value is listed as “higher level of luciferase expression” and the “luciferase expression in spleen” value is on record as “higher level of luciferase expression”.
